Test results: patent publication US20140377340A1, “HLA-DR BINDING PEPTIDES AND THEIR USES” (priority 2007, published 2014)

Columns and labels:
[1] = target: T1, purified HLA DRB1*0401 (Homo sapiens, UniProt P01903+P01911, A100K/A169T/F76Y/I96L/K127E/L162R/M171V/N62H/P40V/Q125Y/R42H/S133A/S149N/S66Y/V115G/V209L/W38E); experiment: HLA-DR radioligand binding inhibition assay, DRB1*0401; details: IC50 nM purified HLA DRB1 *0401, purified HLA DRB1*0401
T1 construct: purified from EBV transformed homozygous cell lines or single MHC allele transfected 721.221, C1R, or fibroblast lines; made in house
Procedure, shortened: (§1)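 The probe, 1-10 nM radiolabeled peptide, was incubated with 1 μM to 1 nM HLA-DR for 2 days in the presence of protease inhibitors.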

[2] = target: T2, purified HLA DRB1*1101 (Homo sapiens, UniProt P01903+P01911, A100R/A169T/A87E/I96F/K41T/L162R/M171V/P40S/Q125H/Q178H/Q39Y/Q99D/R42S/S66Y/T262R/V115G/W38E); experiment: HLA-DR radioligand binding inhibition assay, DRB1*1101; details: IC50 nM purified HLA DRB1 *1101, purified HLA DRB1*1101
T2 construct: purified from EBV transformed homozygous cell lines or single MHC allele transfected 721.221, C1R, or fibroblast lines; made in house
Procedure, shortened: as §1

[3] = target: T3, purified HLA DRB1*0405 (Homo sapiens, UniProt P01903+P01911, A100R/A169T/D86S/F76Y/I96L/K127E/L162R/M171V/N62H/P40V/Q125Y/R42H/S133A/S149N/S66Y/V115G/V209L/W38E); experiment: HLA-DR radioligand binding inhibition assay, DRB1*0405; details: IC50 nM purified HLA DRB1 *0405, purified HLA DRB1*0405
T3 construct: purified from EBV transformed homozygous cell lines or single MHC allele transfected 721.221, C1R, or fibroblast lines; made in house
Procedure, shortened: as §1

[4] = target: T4, purified HLA DRB4*0101 (Homo sapiens, UniProt P01903+P13762, G164S); experiment: HLA-DR radioligand binding inhibition assay, DRB4*0101; details: IC50 nM purified HLA DRB4 *0101, purified HLA DRB4*0101
T4 construct: purified from EBV transformed homozygous cell lines or single MHC allele transfected 721.221, C1R, or fibroblast lines; made in house
Method: (§2) Instead, wells of an opaque white 96-well Optiplate (Packard) are coated with 3 μg (100 μl@ 30 μg/ml) of HLA-specific antibody (Ab) that “capture” complexes of radiolabeled MHC and unlabeled peptide transferred from the molecular binding assay plate in 100 μl of 0.05% NP40/PBS. After a 3-hour incubation period, the supernatant is decanted and scintillation fluid (Microscint 20) added. Captured complexes are then measured on a microplate scintillation and luminescence counter (TopCount NXTTM; Packard).
(§3) HLA-DR purification. Fifteen distinct HLA-DR molecules were used in quantitative assays to measure the binding of peptides to solubilized HLA-DR molecules. […] Briefly, columns of inactivated Sepharose CL4B and Protein A Sepharose were used as pre-columns. HLA-DR molecules were captured by passage of lysates over LB3.1 monoclonal antibody (anti-HLA-DRA) columns. Antibody columns were washed with 10 mM Tris-HCL, pH8.0 with 1% (v/v) NP-40, followed by PBS containing 0.4% (w/v) n-octylglucoside.
(§4) Briefly, 1-10 nM of radiolabeled peptide was co-incubated for 2 days at either room temperature or 37° C. with 1 μM to 1 nM purified HLA-DR molecules in the presence of a cocktail of protease inhibitors. Assays were performed at various pH conditions, ranging from pH 4 to pH 7. […] After incubation, the percentage of HLA-DR-bound radioactivity is determined by capturing HLA-DR/peptide complexes on Optiplates (Packard Instruments, Meriden, Conn.) coated with the LB3.1 antibody and determining bound counts per minute using the TopCount microscintillation counter (Packard Instruments).

[5] = target: T5, purified HLA DRB1*0404 (Homo sapiens, UniProt P01903+P01911, A100R/A169T/F76Y/I96L/K127E/L162R/M171V/N62H/P40V/Q125Y/R42H/S133A/S149N/S66Y/V209L/W38E); experiment: HLA-DR radioligand binding inhibition assay, DRB1*0404; details: IC50 nM purified HLA DRB1 *0404, purified HLA DRB1*0404
T5 construct: purified from EBV transformed homozygous cell lines or single MHC allele transfected 721.221, C1R, or fibroblast lines; made in house
Method: as §2, §3, §4

[6] = target: T6, purified HLA DRB1*1302 (Homo sapiens, UniProt P01903+P01911, A100E/A169T/K41T/L162R/M171V/P40S/Q125H/Q178H/Q39Y/Q99D/R42S/S66N/T262R/V115G/W38E/Y61H); experiment: HLA-DR radioligand binding inhibition assay, DRB1*1302
T6 construct: purified from EBV transformed homozygous cell lines or single MHC allele transfected 721.221, C1R, or fibroblast lines; made in house
Procedure, shortened: as §1

[7] = target: T7, purified HLA DRB1*1501 (Homo sapiens, UniProt P01903+P01911); experiment: HLA-DR radioligand binding inhibition assay, DRB1*1501
T7 construct: purified from EBV transformed homozygous cell lines or single MHC allele transfected 721.221, C1R, or fibroblast lines; made in house
Procedure, shortened: as §1

[8] = target: T8, purified HLA DRB1*0701 (Homo sapiens, UniProt P01903+P01911, A100R/A102G/A103Q/D57E/D86V/E43K/F76Y/K127E/L162R/M171V/P40G/Q125H/Q99D/R33Q/R42Y/R54Q/S133A/S66F/T210M/V115G/Y107V/Y59L/Y89S); experiment: HLA-DR radioligand binding inhibition assay, DRB1*0701; details: IC50 nM purified HLA DRB1 *0701, purified HLA DRB1*0701
T8 construct: purified from EBV transformed homozygous cell lines or single MHC allele transfected 721.221, C1R, or fibroblast lines; made in house
Procedure, shortened: as §1

[9] = target: T9, purified HLA DRB5*0101 (Homo sapiens, UniProt P01903+Q30154); experiment: HLA-DR radioligand binding inhibition assay, DRB5*0101; details: IC50 nM purified HLA DRB5 *0101, purified HLA DRB5*0101
T9 construct: purified from EBV transformed homozygous cell lines or single MHC allele transfected 721.221, C1R, or fibroblast lines; made in house
Procedure, shortened: as §1

[10] = target: T10, purified HLA DRB1*0101 (Homo sapiens, UniProt P01903+P01911, A100R/D57E/F55L/F60I/F76Y/I96L/L162R/M171V/P40L/Q125E/R42F/V115G/Y59C); experiment: HLA-DR radioligand binding inhibition assay, DRB1*0101; details: IC50 nM purified HLA DRB1 *0101, purified HLA DRB1*0101
T10 construct: purified from EBV transformed homozygous cell lines or single MHC allele transfected 721.221, C1R, or fibroblast lines; made in house
Procedure, shortened: as §1

T2 sequence (P01903 26-254, other chains not shown): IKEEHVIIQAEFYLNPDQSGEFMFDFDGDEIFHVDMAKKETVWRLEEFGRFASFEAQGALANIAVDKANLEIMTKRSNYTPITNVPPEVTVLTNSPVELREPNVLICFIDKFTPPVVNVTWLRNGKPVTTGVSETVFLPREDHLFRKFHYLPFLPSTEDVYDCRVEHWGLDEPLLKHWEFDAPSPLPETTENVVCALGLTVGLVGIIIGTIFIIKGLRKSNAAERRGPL

| SMILES | IC50 [1] | IC50 [2] | IC50 [3] | IC50 [4] | IC50 [5] | IC50 [6] | IC50 [7] | IC50 [8] | IC50 [9] | IC50 [10] |
| --- | --- | --- | --- | --- | --- | --- | --- | --- | --- | --- |
| CC(C)C[C@H](NC(=O)[C@H](CCC(=O)O)NC(=O)[C@H](CCCNC(=N)N)NC(=O)[C@H](CC(C)C)NC(=O)CNC(=O)CNC(=O)[C@@H]1CCCN1C(=O)[C@H](CO)NC(=O)[C@H](C)NC(=O)CNC(=O)[C@@H](NC(=O)[C@@H](NC(=O)[C@@H]1CCCN1C(=O)[C@@H](NC(=O)[C@@H](N)[C@@H](C)O)[C@@H](C)O)C(C)C)[C@@H](C)O)C(=O)O [Peptide 9019.0037] |  | 11200 nM | 13200 nM |  | 675 nM | 605 nM | 17100 nM |  | 3000 nM |  |
| CC[C@H](C)[C@H](NC(=O)CNC(=O)[C@H](CC(C)C)NC(=O)CNC(=O)[C@H](CCC(N)=O)NC(=O)[C@H](CC(C)C)NC(=O)[C@@H](NC(=O)[C@H](CC(C)C)NC(=O)[C@@H](N)CO)[C@@H](C)O)C(=O)N[C@@H](CO)C(=O)N[C@@H](Cc1c[nH]c2ccccc12)C(=O)N[C@@H](CC(C)C)C(=O)NCC(=O)N[C@@H](CC(C)C)C(=O)N[C@@H](CCCNC(=N)N)C(=O)O [Peptide 9019.0055] | 143 nM | 6310 nM | 409 nM | 22 nM | 110 nM |  | 50 nM | 3100 nM | > 20000 nM | 93 nM |
| CC(C)C[C@H](NC(=O)[C@@H](NC(=O)[C@H](CCCNC(=N)N)NC(=O)[C@H](CS)NC(=O)[C@@H](N)CCC(=O)O)C(C)C)C(=O)N[C@@H](CCC(N)=O)C(=O)NCC(=O)N[C@@H](CC(C)C)C(=O)N1CCC[C@H]1C(=O)N[C@@H](CCCNC(=N)N)C(=O)N[C@@H](CCC(=O)O)C(=O)N[C@@H](Cc1ccc(O)cc1)C(=O)N[C@H](C(=O)N[C@@H](CC(N)=O)C(=O)N[C@@H](C)C(=O)O)C(C)C [Peptide 9019.0063] | 788 nM |  |  | 2570 nM | 9350 nM |  |  | 4860 nM |  |  |

Continued, values first:

| IC50 [1] | IC50 [2] | IC50 [3] | IC50 [4] | IC50 [5] | IC50 [6] | IC50 [7] | IC50 [8] | IC50 [9] | IC50 [10] | SMILES |
| --- | --- | --- | --- | --- | --- | --- | --- | --- | --- | --- |
| > 20000 nM | > 20000 nM | > 20000 nM | 12100 nM | > 20000 nM | 5640 nM | 7770 nM | 4450 nM |  |  | CC[C@H](C)[C@H](NC(=O)[C@H](CC(C)C)NC(=O)[C@H](C)NC(=O)[C@@H](NC(=O)CNC(=O)[C@@H](NC(=O)[C@H](CC(C)C)NC(=O)[C@@H](NC(=O)CNC(=O)[C@@H](NC(=O)[C@H](CCSC)NC(=O)[C@@H](NC(=O)CNC(=O)[C@@H](NC(=O)[C@@H](N)[C@@H](C)O)C(C)C)[C@@H](C)CC)[C@@H](C)CC)C(C)C)C(C)C)C(C)C)C(=O)O [Peptide 1622.05] |
| 29 nM |  |  | 1500 nM | 36 nM | 14 nM | 59 nM | 24 nM |  | 15 nM | CC[C@H](C)[C@H](NC(=O)CNC(=O)[C@@H](NC(=O)[C@@H](NC(=O)[C@H](C)NC(=O)[C@H](CO)NC(=O)[C@@H](NC(=O)[C@@H](NC(=O)[C@H](CO)NC(=O)[C@@H](NC(=O)[C@H](CC(C)C)NC(=O)[C@@H]1CCCN1C(=O)[C@H](CO)NC(=O)[C@H](C)N)[C@@H](C)O)[C@@H](C)CC)[C@@H](C)CC)C(C)C)C(C)C)C(=O)N[C@@H](CC(C)C)C(=O)O [Peptide 9019.0066] |
